The values below come from PubChem BioAssay AID1645848.

The structures appear in SMILES notation. In brackets after ≈: the same amount, converted by molar mass.

For this data set the following is noted: buffer; pH 7.4; 6.0 h; 150.0 µM.
Regarding `Cn1c(CN2CCCC2)nc2cc(NC(=O)COc3ccc(Cl)cc3)ccc21`, the solubility (kinetic) – broadly, solubility judged after dilution from a stock solution rather than from solid – was over 59 µg/mL. Regarding `Cc1ccc(S(=O)(=O)Nc2ccc(Cl)cc2C(=O)Nc2nc(-c3ccccc3)cs2)cc1`, the solubility (kinetic) was under 1 µg/mL. In the case of `Clc1ccccc1-c1nnc2sc(-c3ccc4c(c3)OCO4)nn12` it was under 1 µg/mL. In the case of `Oc1ccc(NCc2ccccc2OCc2ccccc2Cl)cc1` it was 3.28 µg/mL (≈ 9.65 µM). Then `COCCn1ccc2c(C3=CCOCC3)nc(-c3ccc4c(c3)CNC4=O)cc21`, with over 86 µg/mL. In the case of `COc1cccc2c1CCCC2CCCN1CCN(C2CCCCC2)CC1` (stereo not given), the solubility (kinetic) is over 55 µg/mL. In the case of `CC(=O)N1CCc2c(sc3c2c(=O)n(-c2ccccc2Cl)c(=O)n3Cc2cccc(C)c2)C1` it was 2.16 µg/mL (≈ 4.5 µM); in that of `COC(=O)CSc1nc(-c2ccccc2)cc(-c2ccco2)c1C#N`, under 1 µg/mL; in that of `CC(C)n1cc(-c2ccc3c(c2)N(C)CC3)c2c(NS(=O)(=O)c3ccn(C)n3)ccnc21`, 36.7 µg/mL (≈ 81.5 µM).

For the compound `CCN1CCN(C(=O)CCCn2nc(C)c3c(C)n(-c4ccc(C)cc4)nc3c2=O)CC1`, the kinetic solubility was over 43 µg/mL.

Regarding `Cc1ccc(S(=O)(=O)Nc2cccc(C(=O)Nc3nc(-c4ccc(Cl)cc4)cs3)c2)cc1`, the solubility (kinetic) is under 1 µg/mL. In the case of `COc1ccc(C2(C(=O)N3CCC(n4cc(-c5nc(C)no5)nn4)CC3)CC2)cc1` it was over 60 µg/mL. In the case of `COc1cc2c3cc1Oc1c(O)c(OC)cc4c1[C@@H](Cc1ccc(cc1)Oc1cc(ccc1O)C[C@H]3N(C)CC2)N(C)CC4` it was over 88 µg/mL; in that of `CCCCOc1ccc(C(=O)N2CCC(c3n[nH]c(=O)n3-c3ccc(C)cc3)CC2)cc1`, under 1 µg/mL; in that of `COc1cc(C(=S)N2CCN(CCO)CC2)ccc1OCc1ccc(C)cc1`, 35.9 µg/mL (≈ 89.6 µM). In turn, `Cc1ccc(S(=O)(=O)Nc2ccc(F)cc2C(=O)Nc2nc(-c3ccccc3)cs2)cc1` gave a kinetic solubility of under 1 µg/mL.

Regarding `Oc1ccc(Nc2nc(-c3ccncc3)nc3ccccc23)cc1F`, the solubility (kinetic) was under 1 µg/mL.

`Cc1ccc(S(=O)(=O)Nc2ccccc2C(=O)Nc2nc(-c3ccc(Cl)cc3)cs2)cc1` gave a kinetic solubility of 7.04 µg/mL (≈ 14.6 µM).

For the compound `Cc1ccc(N2CCC(CNc3nc(-c4ccccc4C(C)C)ncc3F)CC2)cn1`, the kinetic solubility was determined as 7.65 µg/mL (≈ 18.2 µM).

`O=C(Nc1nnc(C2CCCCC2)s1)c1ccc(Br)s1` registered a solubility (kinetic) of under 1 µg/mL.

`COC(=O)c1cccc(NC(=O)c2cnc(-c3ccc(F)cc3)nc2-c2ccncc2)c1` returned a solubility (kinetic) of under 1 µg/mL. Then `Cc1cc(NS(=O)(=O)c2ccc(NC(=O)Cc3ccc(F)c(Cl)c3)cc2)no1`, with over 63 µg/mL; and `COc1ccc(-c2nc(-c3c(C)noc3C)cc3c2cc(C)n3CCN(C)C)cc1OC`, with over 96 µg/mL. Then `O=C(Nc1nc(-c2ccccc2)cs1)c1ccccc1-n1cnnn1`, with under 1 µg/mL; and `CCOc1ccc(/C=C/c2nc3ccccc3n2S(=O)(=O)c2cccc(Cl)c2)cc1`, with 0.035 µg/mL (≈ 0.0797 µM). In the case of `O=C(O)CCC(=O)Nc1nc(-c2ccccc2)cs1` it was over 41 µg/mL. In turn, `CC(O)(C#Cc1ccc2c(c1)N(c1nc(N)ncc1Cl)CC2)c1nccs1` (stereo not given) gave a solubility (kinetic) of 11.9 µg/mL (≈ 29.9 µM).

In the case of `Nc1nc2c(s1)C(c1cc(Cl)ccc1F)CC(=O)N2` (stereo not given), the kinetic solubility came to 3.78 µg/mL (≈ 12.7 µM). Then `Clc1ccc2ncc(-c3cccc(NC4CCNC4)n3)n2c1` (stereo not given), with over 46 µg/mL. Then `Cc1cccc(NC(=S)N2CCN(c3cccc(C(F)(F)F)c3)CC2)c1`, with 1.59 µg/mL (≈ 4.18 µM); and `O=C(NCCc1ccc(OCC(F)(F)F)c(OCC(F)(F)F)c1)c1cc2sccc2n1Cc1ccccc1`, with under 1 µg/mL.

Regarding `CCCN1CNc2c(c(=O)[nH]c(=S)n2CCc2cccc(Cl)c2Cl)C1`, the solubility (kinetic) worked out at 13.4 µg/mL (≈ 33.6 µM). In the case of `CCOc1ccc(CNc2ccc3c(c2)ncn3C)cc1` it was over 42 µg/mL; in that of `O=C(Nc1nc(-c2ccccc2)cs1)c1ccccc1[N+](=O)[O-]`, under 1 µg/mL; in that of `O=C1CCCC2=C1C1(CCSC1)N=C(Nc1nc3ccccc3o1)N2` (stereo not given), under 1 µg/mL. In the case of `O=C(Nc1ccc(S(=O)(=O)N2CCN(Cc3ccccc3)CC2)cc1)c1cnccn1` it was under 1 µg/mL; in that of `O=C1CCCC2=C1C(c1ccncc1Br)N=C(Nc1nc3ccccc3o1)N2` (stereo not given), under 1 µg/mL; in that of `CCC1=Nc2cc(C(=O)NC3CCCC3)ccc2Sc2ccc(Cl)cc21`, under 1 µg/mL. Then `COc1cccc(CN2CCNc3cc(Nc4ccccc4)ncc3C2)c1`, with 49.9 µg/mL (≈ 139 µM).

In the case of `Cc1ccccc1C(C(=O)NC1CCCCC1)N(C(=O)Cn1ccnc1C)c1cccc(F)c1` (stereo not given), the kinetic solubility is 3.13 µg/mL (≈ 6.76 µM). Then `CC1(C)CC2CC(C)(CN2S(=O)(=O)c2ccc(C(=O)Nc3cccc(S(=O)(=O)N4CCOCC4)c3)cc2)C1` (stereo not given), with under 1 µg/mL; and `C[S+](=O)([O-])c1ccc(-c2nc(C(=O)N3CCOCC3)n3ccccc23)cc1`, with over 57 µg/mL; and `Cc1c(C)n(Cc2ccc(-c3ccccc3C(=O)O)cc2)c2ccc(C(=O)N[C@@H](C)c3ccc([N+](=O)[O-])cc3)cc12`, with 44 µg/mL (≈ 80.3 µM).

In turn, `Fc1cc(F)cc(Nc2nc(-c3ccncc3)nc3ccccc23)c1` had a solubility (kinetic) of 2.59 µg/mL (≈ 7.75 µM).

As for `Cc1cccc(-n2cnc3cc(C(=O)N4CCCC(C(F)(F)F)C4)ccc32)c1` (stereo not given), the solubility (kinetic) amounted to 45.3 µg/mL (≈ 117 µM). In the case of `COc1ccc(NC(=O)c2c(C)c(C(C)=O)c(C)n2C)cc1S(=O)(=O)Nc1ccc(Br)cc1` it was under 1 µg/mL.

In turn, `O=C([C@@H]1CCCN(c2ccc3[nH]c(C4(n5cc(Cl)cn5)CC4)nc3n2)C1)N1CCCC1` returned a kinetic solubility of 27.2 µg/mL (≈ 61.8 µM). Then `Cc1nn(CC(=O)NCCCN2CCC(N3CCCCC3)CC2)c(=O)c2cc(-c3ccccc3)nn12`, with over 73 µg/mL. Then `Cc1cc(C)nc(NC(=S)N2CCN(c3cccc(C(F)(F)F)n3)CC2)c1`, with 20.6 µg/mL (≈ 52 µM); and `Cc1ccc(NC(=O)c2ccncc2NS(=O)(=O)c2ccc(C)cc2)cc1`, with 47.5 µg/mL (≈ 125 µM); and `Cc1cc(C)nc(NS(=O)(=O)c2ccc(NC(=S)NC(=O)COc3ccc(Br)cc3Cl)cc2)n1`, with over 100 µg/mL.

For `Oc1c(CN2CCN(c3ccccn3)CC2)cc(Cl)c2cccnc12`, the kinetic solubility was 11.4 µg/mL (≈ 32.1 µM). In the case of `CCCCCn1c(=O)[nH]c2cc(C(=O)NCCCN3CCC(C)CC3)ccc2c1=O` it was over 61 µg/mL; in that of `CN(C)c1cccc(-c2ncc(F)c(N3CCC(C(N)=O)CC3)n2)c1`, over 51 µg/mL. In the case of `COc1ccccc1-c1nc(NCc2ccc(-c3cccnc3)cc2)c2ccccc2n1` it was under 1 µg/mL. In the case of `Cc1ccc(N2CCC(CNc3nc(-c4ccccc4C(C)C)ncc3C)CC2)cn1` it was 19.8 µg/mL (≈ 47.7 µM). Compound `CC(C)(C)OC(=O)N1CCN(c2ccc(NCc3ccc(-c4ccc(C#N)cc4)o3)cc2)CC1` showed a solubility (kinetic) of 9.31 µg/mL (≈ 20.3 µM). In the case of `COc1ccc2[nH]cc(CCNC(=O)c3cnn(-c4ccc(C)cc4)c3C3CCN(C(=O)OC(C)(C)C)CC3)c2c1` it was 1.56 µg/mL (≈ 2.8 µM); in that of `COc1ccc2c(c1)CN(C(=O)CCN1CCC(Cc3ccccc3)CC1)CCS2`, over 63 µg/mL; in that of `Cc1ccc(S(=O)(=O)Nc2ccc(C)cc2C(=O)Nc2nc(-c3ccccc3)cs2)cc1`, under 1 µg/mL.

As for `COC(=O)[C@H](Cc1ccc(O[S+](=O)([O-])c2cccc3cnccc23)cc1)N[S+](=O)([O-])c1ccc2cnccc2c1`, the solubility (kinetic) came out at 3.21 µg/mL (≈ 5.55 µM). For `NC(=O)C1CCN(c2nc(-c3ccc(OC(F)(F)F)cc3)cs2)CC1`, the solubility (kinetic) was under 1 µg/mL. In the case of `O=C(CCc1ccccc1)Nc1ccc(S(=O)(=O)Nc2nccs2)cc1` it was 10.6 µg/mL (≈ 27.5 µM); in that of `O=C(NCCCN1CCCC1=O)c1ccc(-c2ncc3cnc(-c4ccccc4)cn23)cc1`, 21.9 µg/mL (≈ 49.9 µM). In the case of `Cc1ccc(S(=O)(=O)Nc2cnccc2C(=O)Nc2nc(-c3ccc(C)c(C)c3)cs2)cc1` it was under 1 µg/mL; in that of `CCNC(=O)c1ccc(-c2ccc3ncnc(NCC4CCCO4)c3c2)o1` (stereo not given), 25 µg/mL (≈ 68.3 µM). For the compound `O=C(Nc1nc2cc(C(F)(F)F)ccc2s1)c1ccc(-c2cccc([N+](=O)[O-])c2)o1`, the kinetic solubility is under 1 µg/mL. Then `COc1cc2c(c(OC)c1OC)-c1ccc(SC)c(=O)cc1C(N)CC2` (stereo not given), with over 55 µg/mL; and `CCOc1ccc(S(=O)(=O)NCc2cccnc2)cc1NC(=O)c1ccccc1F`, with under 1 µg/mL; and `CC1CCCCN1c1ncnc(N)c1[N+](=O)[O-]` (stereo not given), with over 35 µg/mL. Consider `CCOc1ccc(CCNC(=O)c2cc3ccccc3n2CCN2CCOCC2)cc1OCC`, for which the solubility (kinetic) is 47.5 µg/mL (≈ 102 µM). `Cc1ccc(CN2C(=O)C(O)(CC(=O)c3ccc(C)cc3)c3ccccc32)cc1` (stereo not given) had a kinetic solubility of under 1 µg/mL. In the case of `CC1=C[C@@H](CNC(C)C)[C@H](C(C)C)C[C@H]1Cc1nnc(-c2ccncc2)o1` it was over 54 µg/mL; in that of `Cc1c(-c2cccc3c(CCCOc4cccc5ccccc45)c(C(=O)O)n(Cc4cccnc4)c23)c(COc2ccc(N3CCN([S+](=O)([O-])N(C)C)CC3)cc2)nn1C`, under 1 µg/mL. Compound `CCN(CC)CCNC(=O)c1c(C)[nH]c(C=C2C(=O)Nc3ccc(F)cc32)c1C` showed a kinetic solubility of over 59 µg/mL. `CCOc1cc2ncc(C#N)c(Nc3ccc(OCc4ccccn4)c(Cl)c3)c2cc1NC(=O)/C=C/CN(C)C` had a solubility (kinetic) of under 1 µg/mL. In the case of `O=C(Nc1nc(-c2ccccc2)cs1)c1ccncc1NS(=O)(=O)c1ccc(Cl)cc1` it was under 1 µg/mL; in that of `COc1ccc(C2=Nc3ccc(Br)cc3C(c3ccccc3)N2CC(=O)NN)cc1` (stereo not given), over 69 µg/mL; in that of `Cc1nc(NC(=O)C2CC(=O)N(c3n[nH]c4cc(Br)ccc34)C2)sc1C` (stereo not given), under 1 µg/mL.

The compound `O=C(Nc1ccccc1C(=O)Nc1cccc(C(F)(F)F)c1)c1ccccc1` had a solubility (kinetic) of under 1 µg/mL. In turn, `CCc1ccc(CNc2ccc3c(c2)ncn3C(C)(C)C)cc1` displayed a kinetic solubility of 10.8 µg/mL (≈ 35.3 µM).

The compound `O=c1[nH]c(C2CCCN(CC3CCCCC3)C2)nn1-c1ccc(Cl)cc1` (stereo not given) showed a solubility (kinetic) of under 1 µg/mL. Then `Cc1sc(NC(=O)Cc2ccc3c(c2)OCO3)nc1-c1ccc2c(c1)CCN2C(=O)c1ccccc1F`, with under 1 µg/mL; and `Cc1sc2ncnc(Sc3nnnn3-c3ccccc3)c2c1-c1ccccc1`, with 0.29 µg/mL (≈ 0.72 µM); and `Cc1cc(C)nc(NC(=S)N2CCN(c3cc(C(F)(F)F)nc4ccc(C(F)(F)F)cc34)CC2)c1`, with 12 µg/mL (≈ 23.4 µM).
